Patent US5654179A, “Nucleic acid preparation methods” (HRI Research, Inc., priority 1994, dated 1997)
Where two headings read alike, the source gives them in different places.

Columns and labels:
Taq polymerase [1] = assay: PCR inhibition, SK38/39 system, 115-mer product on ethidium bromide gel or autoradiograph; type: biochemical
Description: (§1) Generally, PCR was carried out using 175-200 μM dNTPS (deoxyribonucleoside 5'-triphosphates) and 0.5 to 1.0 μM primers. Five units/100 μl of Taq polymerase were used. PCR reactions were overlaid with 30-100 μl light mineral oil. A typical PCR cycle for HIV amplification using a Perkin-Elmer Cetus DNA Thermal Cycler (Part No. N8010150) was: denaturation at 95° C. for 30 seconds; annealing at 55° C. for 30 seconds; and extension at 72° C. for 1 minute. PCR cycles were normally carried out in this manner for 35 cycles followed by 7 minutes at 72° C.
In other cases, amplification of HIV sequences was performed using primer pair SK-38 (SEQ ID NO:5) and SK-39 (SEQ ID NO:6) and 115-mer (SEQ ID NO:7) as target to produce a 115-mer product.
Where agarose gel electrophoresis was used, the PCR products were fractionated by electrophoresis through a 3% Nusieve/1% agarose gel in TBE buffer. Electrophoresis was typically carried out in a constant voltage of 8-10 V/cm. Following agarose gel electrophoresis, individual bands were, in most cases, visualized by ethidium bromide staining. This involved staining the agarose gel with 1 μg/ml ethidium bromide in TBE for 30 minutes followed by destaining the agarose gel with TBE for 30 minutes.
The chemical reaction was performed as follows. Two aliquots (30 mg/aliquot) of sodium borohydride (NaBH4) were added at ten minute intervals to 1 ml of 200 μM hematin (Sigma) in 1M Tris (pH 8.0) under argon in the dark. The pH was adjusted to 6.0 between additions. At the end of the reaction (20 minutes) the pH was adjusted to 1.0 and then neutralized to pH 7.0. Six aliquots (5 μl) of the product of the reaction corresponding to different amounts of reacted hematin (37.5 μM, 7.5 μM, 1.5 μM, 0.3 μM, 0.06 μM, 0.012 μM) were added to standard (20 μl) PCR reactions in different tubes using the SK38/39 system (see above). Three standard control reactions were run in separate tubes: i) a no nucleic acid target control; ii) a no primer control; and iii) a positive control (no hematin). In addition, unreacted hematin was added to four different tubes in different amounts (50 μM, 5 μM, 0.5 μM, and 0.05 μM). PCR was carried out for 30 cycles. The PCR products were thereafter electrophoresed (agarose) and visualized with ethidium bromide staining (FIG. 2A, lanes 1-13). The three above-named control reactions were electrophoresed in lanes 1, 2 and 3, respectively. […] The unreacted hematin tubes (lanes 4-7) show no product until hematin is present at a very low concentration (0.05 μM, lane 7), at which point product is evident. […] Indeed, product is evident where 1.5 μM reacted hematin or less was present. […] A score (i.e., % maximum intensity of a positive control) was given to each band. An OD unit of 1.0 corresponds to 100% of maximum intensity. After examination of a plot of the estimated OD units to the concentration of hematin (expressed in the log scale) in these PCR reactions, it is clear that approximately a thirty-fold concentration difference was achieved (reacted to unreacted).
The photochemical reaction was performed as follows. Stock biliverdin (Sigma, 5 mM) was diluted in solution (50 mM Tris pH 7.8) to a final concentration of 200 μM. Two aliquots (300 μl) were then made. One aliquot was left unreacted. The other aliquot was exposed to ultraviolet radiation from an HRI-100 for 16 hours using the industry standard, F8T5BL hot cathode dual bipin lamps. Thereafter, both the unirradiated and irradiated materials were added (5 μl) to standard (20 μl) PCR reactions in different tubes using the SK38/39 system (see above) and 10^9 copies of 115-mer target. Three standard control reactions were run in separate tubes: i) a no nucleic acid target control; ii) a positive control (no biliverdin); and iii) a no Taq control. PCR was carried out for thirty (30) cycles. The PCR products were thereafter electrophoresed (agarose) and visualized with ethidium bromide staining (FIG. 3A, lanes 1-5). […]

[2] = Transferrin binding of heme
Excerpt: This is lower than that expected from the molar ratio for transferrin to iron binding of 0.5. Second, there is the question of the central metal ion: the central metal iron was found not to be required for the transferrin-mediated phenomenon of the present invention.

Taq polymerase [3] = assay: HIV PCR after inhibitor treatment of whole blood lysate; type: biochemical; settings: Mode III, transferrin with sodium bicarbonate
Description: The enzyme was inactivated by heating (95°-100° C., 10 minutes).

Taq polymerase [4] = assay: PCR from boiled whole blood with or without transferrin; type: biochemical; settings: with transferrin; without transferrin inhibited above 1 μl
Description: Experiment 1. Whole blood (200 μl) was boiled for 10 minutes then briefly centrifuged to precipitate the solid coagulated mass which formed. The supernatant layer was then used directly for PCR amplification (1, 2, 3, 4, or 5 μl), either with or without transferrin. […] An aliquot of 5 μl whole blood processed by Mode III gave a very intense signal, indicating the advantage of the method over the boiling method, which provided no signal at all with a 5 μl aliquot.

Taq polymerase [5] = type: biochemical
Description: as §1
In some instances below, amplification of human histocompatibility (HLA) Class II genes was performed using primer pair GH26 (SEQ ID NO:2) and GH27 (SEQ ID NO:3) and human placental DNA to produce a 242-mer product (SEQ ID NO: 4). These primers and other primers are described in PCR Protocols: A Guide To Methods and Applications, Innis, M. A. et al. eds., pp. 261-271 (1990)).
Whole blood was prepared according to Mode III (see FIG. 1). Whole blood samples (100 μl) were lysed with protease K (0.5 mg/ml, 55° C. for 1 hour). The enzyme was inactivated by heating (95°-100°C., 10 minutes). Four sets of reactions were then set up involving the addition of interfering reagent to the protease lysate: 1) transferrin with 10 mM sodium bicarbonate; 2) transferrin with 20 mM sodium bicarbonate; 3) serum albumin with 10 mM sodium bicarbonate; and 4) serum albumin with no cofactor. These reaction were performed at room temperature for thirty minutes using a concentration range for transferrin and serum albumin (10, 25, 50, 75, 100, 150, 200 and 250 μg per 20 μl PCR rxn). PCR was then set up using the primer pair GH26/GH27 to produce a 242-mer product (see above). Two standard control reactions were run in separate tubes: i) a no nucleic acid target control; and 2) a positive control (human placental DNA). Four additional control lanes were run: 1) no inhibitor treatment (two lanes); 2) 10 mM sodium bicarbonate only (one lane); and 3) 50 μg transferrin only (one lane); and 4) transferrin with 10 mM sodium bicarbonate (two lanes). PCR was carried out for 35 cycles. The PCR products were thereafter electrophoresed (agarose) and visualized with ethidium bromide staining. The two above-named control reactions were electrophoresed in lanes 9 and 10 of FIG. 16A, respectively, as well as lanes 17 and 18 of FIG. 16B, respectively. In FIG. 16C, the positive control is in lane 1 and the negative control is in lane 2.
Whole blood was prepared according to Mode III (see FIG. 1). Whole blood samples (20 μl) were lysed with protease K (0.5 mg/ml, 55° C. for 1 hour). The enzyme was inactivated by heating (95°-100° C., 10 minutes). Reactions were then set up involving the addition of bovine transferrin or serum albumin with various cofactors, including bicarbonate ion, azide ion, thiocyanate ion, cyanate ion, oxalate ion, malonate ion, glycinate ion, and thioglycolate ion. These reaction were performed at room temperature for thirty minutes. PCR was then set up using the using primer pair GH26/GH27 to produce a 242-mer product (see above). PCR was carried out for 35 cycles. The PCR products were thereafter electrophoresed (agarose) and visualized with ethidium bromide staining.

[6] = in the presence of an anion (such as HCO3^-); cited from earlier work
[7] = system: DNA ligase from mouse erythroleukemia (MEL) cells; settings: dilution, dialysis, or sucrose gradient centrifugation of cell-free extracts; cited from earlier work
[8] = system: NAD-dependent DNA ligase from E. coli; settings: cited from earlier work
[9] = system: reverse transcriptase purified from arian myeloblastosis virus; settings: cited from earlier work
DNA ligase = settings: cited from earlier work
[10] = system: DNA-cytoplasmic DNA polymerase complex; settings: cited from earlier work
[11] = system: virion-associated reverse transcriptase (RTase) of murine leukemia virus (MuLV); settings: cited from earlier work
T4 DNA ligase = settings: dilution, dialysis, or sucrose gradient centrifugation of cell-free extracts; cited from earlier work
Taq polymerase [12] = settings: cited from earlier work

With “transferrin: blood serum component, an iron transport protein” the “PCR product in presence of protoporphyrin” value (Taq polymerase [1]) was “product is visible”, the “molar ratio of transferrin to heme at which transferrin is most effective in binding heme” value [2] was less than 0.27 and the amplification specificity (Taq polymerase [3]) was “improves the specificity of the reaction”. For the same substance, the “aliquot of boiled whole blood supernatant up to which signal was provided” value (Taq polymerase [4]) was no more than 3 µL, the PCR product (Taq polymerase [5]; 10 μg per 20 μl PCR rxn, with cofactor) was “No product is visible” and the PCR product (Taq polymerase [5]; 25 μg per 20 μl PCR rxn, with cofactor) was “faint product band”. The PCR product (Taq polymerase [5]; 50 μg transferrin alone) was “No product is visible”, the PCR product (Taq polymerase [5]; 50 μg transferrin with 10 mM cofactor) was “Strong product bands” and the PCR product (Taq polymerase [5]; higher concentration of the cofactor (20 mM sodium bicarbonate), lanes 11-18) was “not as apparent”. For the same substance, the PCR product (Taq polymerase [5]; higher concentrations (50 to 250 μg, lanes 3-8), with cofactor) was “Strong product bands” and the “capacity to take up iron atoms” value [6] was 2 iron atoms per molecule.
In the case of hemin, the “reversibility of inhibition of DNA ligase” value [7] is listed as “not reversible”, the “concentration up to which E. coli DNA ligase was not inhibited” value [8] is listed as “up to 150 μM” and the “inhibition of reverse transcriptase from myeloblastosis virus” value [9] is listed as “does not inhibit”. The “concentration that does not affect DNA ligase activity or DNA substrate integrity” value (DNA ligase) was no more than 4 µM, the IC50 (DNA ligase; pre-incubation, depending on the source of the DNA ligase, read-out: half-maximal inhibition of DNA ligase) was 25 to 100 µM and the “complete inhibition of the formation of DNA-enzyme complex” value [10] was no less than 12 µM. The “mode of inhibition of DNA synthesis” value [10] was “competitive with respect to template and noncompetitive with respect to substrate”, the “reversibility of inhibition of MuLV RTase” value [11] was “reversible inhibitor” and the “reversibility of inhibition of T4 DNA ligase” value (T4 DNA ligase) was “not reversible”. For the same substance, the “inhibition of PCR / Taq polymerase” value (Taq polymerase [12]) was “inhibit”.
